# Target: T1, recombinant human sweet receptor (Homo sapiens, UniProt Q7RTX0+Q8TE23)
# T1 construct: expressed in transfected cells
# T1 sequence (Q8TE23 20-839): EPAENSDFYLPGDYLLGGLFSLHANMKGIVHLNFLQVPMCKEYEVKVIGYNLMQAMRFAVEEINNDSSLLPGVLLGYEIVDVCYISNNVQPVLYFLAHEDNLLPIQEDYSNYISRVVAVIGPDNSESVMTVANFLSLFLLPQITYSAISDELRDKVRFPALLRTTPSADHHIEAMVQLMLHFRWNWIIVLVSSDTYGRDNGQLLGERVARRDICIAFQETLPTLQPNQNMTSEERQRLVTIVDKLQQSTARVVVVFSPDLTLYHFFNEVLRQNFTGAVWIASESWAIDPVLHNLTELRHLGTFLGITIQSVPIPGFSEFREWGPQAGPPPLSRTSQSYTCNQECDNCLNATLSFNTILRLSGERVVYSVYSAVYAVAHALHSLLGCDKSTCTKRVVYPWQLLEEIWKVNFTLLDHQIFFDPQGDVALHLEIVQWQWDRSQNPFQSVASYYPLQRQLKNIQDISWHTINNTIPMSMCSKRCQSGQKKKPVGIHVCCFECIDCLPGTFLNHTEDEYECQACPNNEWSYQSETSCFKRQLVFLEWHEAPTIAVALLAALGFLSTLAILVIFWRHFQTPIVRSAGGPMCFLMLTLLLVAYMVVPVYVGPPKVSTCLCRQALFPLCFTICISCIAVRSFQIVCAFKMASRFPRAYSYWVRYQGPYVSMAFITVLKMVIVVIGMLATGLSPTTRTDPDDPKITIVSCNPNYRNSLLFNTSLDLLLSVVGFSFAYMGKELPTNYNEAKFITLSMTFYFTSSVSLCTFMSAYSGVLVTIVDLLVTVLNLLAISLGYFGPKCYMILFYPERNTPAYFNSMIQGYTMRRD
# T1 sequence (Q7RTX0 21-852): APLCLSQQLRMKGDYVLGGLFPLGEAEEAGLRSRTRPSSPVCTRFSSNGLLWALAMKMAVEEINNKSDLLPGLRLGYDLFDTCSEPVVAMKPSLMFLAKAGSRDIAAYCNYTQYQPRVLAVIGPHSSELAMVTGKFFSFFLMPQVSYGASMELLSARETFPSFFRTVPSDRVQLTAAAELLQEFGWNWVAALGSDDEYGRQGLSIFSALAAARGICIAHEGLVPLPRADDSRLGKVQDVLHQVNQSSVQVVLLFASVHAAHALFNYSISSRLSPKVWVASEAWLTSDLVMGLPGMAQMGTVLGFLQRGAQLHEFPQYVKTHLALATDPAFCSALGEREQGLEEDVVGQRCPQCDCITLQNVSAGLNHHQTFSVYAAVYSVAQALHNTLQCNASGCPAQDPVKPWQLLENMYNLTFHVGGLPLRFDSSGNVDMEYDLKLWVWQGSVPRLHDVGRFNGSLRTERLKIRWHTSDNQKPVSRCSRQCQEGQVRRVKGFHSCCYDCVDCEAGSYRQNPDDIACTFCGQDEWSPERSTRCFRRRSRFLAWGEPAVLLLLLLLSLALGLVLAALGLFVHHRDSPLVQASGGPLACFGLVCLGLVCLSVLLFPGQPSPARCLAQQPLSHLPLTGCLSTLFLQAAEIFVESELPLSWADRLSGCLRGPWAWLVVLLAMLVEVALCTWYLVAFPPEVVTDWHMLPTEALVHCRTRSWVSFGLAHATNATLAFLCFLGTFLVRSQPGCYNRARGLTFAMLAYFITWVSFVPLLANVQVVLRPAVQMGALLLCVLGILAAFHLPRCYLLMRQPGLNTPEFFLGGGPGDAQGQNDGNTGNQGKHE
# Experiment: Sweet receptor assay, calcium imaging (Fluo-4 AM) in cells stably expressing the receptor and chimeric G-protein G16g25
# Assay type: cell-based
# Description: Cells stably expressing the recombinant human sweet receptor and the chimeric G-protein G16g25 were dispensed in a 384-well clear bottom plate (Fisher) and incubated overnight at 37° C. and 6% CO2. On the day of the experiment, cells were loaded with 4 μM of the calcium indicator Fluo-4 AM (Invitrogen) in D-PBS for 1 hour at room temperature and excess dye washed away with D-PBS, leaving a residual volume of 25 μL/well. After 30 minutes of rest time the cell plate and the compound plate were transferred into a fluorometric imaging plate reader (Molecular Devices). To determine potency, compound plates were prepared with serial dilutions of compound at 2× the final assay concentration in D-PBS. Imaging and data analysis was performed according to the procedures set forth in Servant et al., PROC. NAT'L ACAD. SCI. USA, vol. 107(10), pp. 4746-51 (2010).
smiles,measurement,setting,value
C[C@H](CC[C@@H](O[C@@H]1O[C@H](CO[C@H]2O[C@H](CO)[C@@H](O)[C@H](O)[C@H]2O)[C@@H](O)[C@H](O)[C@H]1O[C@@H]1O[C@H](CO)[C@@H](O)[C@H](O)[C@H]1O)C(C)(C)O)[C@H]1CC[C@@]2(C)C3CC=C4[C@@H](CC[C@H](O[C@@H]5O[C@H](CO)[C@@H](O[C@@H]6O[C@H](CO)[C@@H](O)[C@H](O)[C@H]6O)[C@H](O)[C@H]5O)C4(C)C)[C@]3(C)[C@H](O)C[C@]12C (some centres unmarked) [MC1],EC50,"Fluo-4 AM calcium signal, fluorometric imaging plate reader, read-out: EC50 of the dose-response curve in the sweet taste assays",8 µM
same,dose-response effect in the sweet taste assays,serial dilutions of compound,showed a dose-response effect indicative of its utility as a sweetener

# From US20240225066A1, “MOGROSIDE COMPOUNDS AND THEIR COMESTIBLE USE” (Firmenich Incorporated, priority 2021, published 2024)
